Literature values in patent US11878081B1, “Pharmaceutical formulations of tafamidis” (TaP Pharmaceuticals, AG, priority 2022, dated 2024).
Where two headings read alike, the source gives them in different places.

Columns and labels:
[1] = as stated by the '116 publication
[2] = capsule formulation of Table B/C, 61 mg, pH 6.8 PBS 900 ml, paddle 50 RPM, 37° C.
[3] = 20 mg in 3.0 mL, equilibration 1 h, UHPLC

## O=C(O)c1ccc2nc(-c3cc(Cl)cc(Cl)c3)oc2c1 [‘441 patent's tafamidis crystal form 1, 2-(3,5-dichlorophenyl)-1,3-benzoxazole-6-carboxylic acid]
[1]
  solubility: low solubility
[1]; listed as tafamidis form 1
  stability: more stable than forms 2, 4, and 6
[2]; 0 min
  Cumulative drug release: 0.0%
[2]; 5 min
  Cumulative drug release: 14.0%
[2]; 10 min
  Cumulative drug release: 27.3%
[2]; 15 min
  Cumulative drug release: 29.1%
[2]; 20 min
  Cumulative drug release: 28.1%
[2]; 30 min
  Cumulative drug release: 27.6%
[2]; 45 min
  Cumulative drug release: 26.8%
[2]; 60 min
  Cumulative drug release: 21.8%
[3]; FaSSIF
  concentration of tafamidis in saturated solution (solubility): 9.0 µg/mL
[3]; FeSSIF
  concentration of tafamidis in saturated solution (solubility): 0.6 µg/mL
[3]; SGF
  concentration of tafamidis in saturated solution (solubility): 1.5 µg/mL

## O=C(O)c1ccc2nc(-c3cc(Cl)cc(Cl)c3)oc2c1 [form 4, 2-(3,5-dichlorophenyl)-1,3-benzoxazole-6-carboxylic acid]
[1]
  stability: unstable
